Data from the supplement of paper PMC10307832.

Assays:
Assay in all cases: relative viability (nuclei count vs DMSO), 5 days (fraction); higher = more cells survive
[1] = compound: Cn1cc(-c2cnn3c(N)c(Br)c([C@@H]4CCCNC4)nc23)cn1 + Cc1nc(Nc2ncc(C(=O)Nc3c(C)cccc3Cl)s2)cc(N2CCN(CCO)CC2)n1 [Dasatinib] (partner 0.075 µM)
How it was run: (§1)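 Relative viability was taken as the ratio of nuclei in treated wells to nuclei in vehicle wells. Lung cancer cell lines in 1536-well plates received compounds by pin tool one day after seeding, either one drug alone or a fixed anchor-drug dose plus five library-drug doses (not always all listed) in √10 steps. Nuclei were counted on 4× images after 5 days of treatment, and values are medians of duplicate plates.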

[2] = compound: Cn1cc(-c2cnn3c(N)c(Br)c([C@@H]4CCCNC4)nc23)cn1 + CS(=O)(=O)N1CCN(Cc2cc3nc(-c4cccc5[nH]ncc45)nc(N4CCOCC4)c3s2)CC1 [Pictilisib] (partner 1 µM)
How it was run: as §1

[3] = compound: Cn1cc(-c2cnn3c(N)c(Br)c([C@@H]4CCCNC4)nc23)cn1 + C[C@@H](Oc1cc(-c2cnn(C3CCNCC3)c2)cnc1N)c1c(Cl)ccc(F)c1Cl [Crizotinib] (partner 1 µM)
How it was run: as §1

[4] = compound: Cn1cc(-c2cnn3c(N)c(Br)c([C@@H]4CCCNC4)nc23)cn1 + O=C(CCCCCCC(=O)Nc1ccccc1)NO [Vorinostat] (partner 1 µM)
How it was run: as §1

Cell Line	relative viability ([1]; first compound 0.05 µM)	relative viability ([1]; first compound 0.1581 µM)	relative viability ([1]; first compound 0.5 µM)	relative viability ([1]; first compound 1.581 µM)	relative viability ([1]; first compound 5 µM)	relative viability ([2]; first compound 0.05 µM)	relative viability ([2]; first compound 0.1581 µM)	relative viability ([2]; first compound 0.5 µM)	relative viability ([2]; first compound 1.581 µM)	relative viability ([2]; first compound 5 µM)	relative viability ([3]; first compound 0.05 µM)	relative viability ([3]; first compound 0.1581 µM)	relative viability ([3]; first compound 0.5 µM)	relative viability ([3]; first compound 1.581 µM)	relative viability ([3]; first compound 5 µM)	relative viability ([4]; first compound 0.05 µM)	relative viability ([4]; first compound 0.1581 µM)	relative viability ([4]; first compound 0.5 µM)	relative viability ([4]; first compound 1.581 µM)	relative viability ([4]; first compound 5 µM)
201T	0.614	0.568	0.651	0.587	0.439	0.644	0.621	0.704	0.613	0.573	1.03	1.03	1.06	1.05	1.07	0.938	1.05	0.996	0.897	0.549
A549						0.503	0.606	0.434	0.284	0.307	0.783	0.962	0.778	0.531	0.492					
A-427	0.863	0.816	0.633	0.583	0.358	0.675	0.661	0.819	0.643	0.509	0.938	1.02	0.922	0.725	0.566	0.817	0.915	0.843	0.816	0.406
ABC-1	0.479	0.561	0.497	0.484	0.301	0.763	0.666	0.721	0.54	0.341	1.16	0.935	1.06	0.563	0.316		0.955	1.04	1.02	0.356
BEN	0.316	0.286	0.347	0.327	0.265	0.628	0.575	0.498	0.496	0.417	0.911	0.969	0.861	0.745	0.608	0.659	0.531	0.558	0.644	0.508
CAL-12T	0.467	0.427	0.26	0.299	0.174	0.416	0.45	0.525	0.389	0.244	0.612	0.459	0.485	0.321	0.176	0.848	0.775	0.664	0.56	0.228
COR-L23	0.495	0.451	0.441	0.343	0.2	0.952	1.16	0.597	0.447	0.257	0.594	0.809	0.731	0.518	0.179	0.387	0.273	0.24	0.187	0.117
COR-L 105	0.318	0.336	0.341	0.29	0.309	0.459	0.4	0.376	0.376	0.385	0.739	0.722	0.713	0.535	0.462	0.921	0.723	0.756	0.526	0.616
Calu-6						0.935	0.605	0.419	0.212	0.194	0.964	0.643	0.603	0.253	0.167					
ChaGo-K-1	0.565	0.564	0.606	0.478	0.353	0.708	0.672	0.65	0.617	0.501	1.15	1.36	1.24	0.92	1.05	0.736	0.785	0.779	0.687	0.753
EKVX	0.376	0.549	0.54	0.496	0.578	0.507	0.506	0.507	0.469	0.396	0.942	1.27	1.09	0.821	0.945	0.736	0.723	0.712	0.638	0.691
EMC-BAC-2	0.315	0.328	0.333	0.342	0.25	0.545	0.561	0.531	0.475	0.509	0.73	0.769	0.715	0.646	0.703	0.275	0.351	0.35	0.46	0.23
EPLC-272H	0.34	0.339	0.333	0.286	0.162	0.289	0.291	0.277	0.211	0.21	0.943	1.07	1	0.945	0.826	0.571	0.275	0.239	0.266	0.15
H3255	0.313	0.379	0.39	0.446	0.267	0.489	0.488	0.427	0.425	0.327	0.799	0.852	0.942	0.729	0.5	0.738	0.872	0.914	0.746	0.411
HARA	0.37	0.316	0.332	0.252	0.157	0.463	0.345	0.372	0.438	0.207	0.935	1.12	0.987	0.842	0.369	0.62	0.511	0.511	0.433	0.556
HCC-15	0.706	0.633	0.511	0.464	0.483	0.798	0.768	0.757	0.634	0.764	0.926	0.98	0.877	0.722	0.652	0.922	1	0.9	0.804	0.705
HCC-44						0.566	0.577	0.63	0.465	0.427	0.906	1.02	0.913	0.86	0.789	1.08	1.13	1.22	1.08	1.12
HCC-78		0.384	0.388	0.398	0.295	0.245	0.246	0.11	0.155	0.154	0.323	0.391	0.378	0.344	0.218	0.431	0.609	0.478	0.41	0.416
